Legend:
sugarcane variety Q165 = assay: RNAseq expression analysis of leaves before and after probenazole treatment; assay type: in vivo; details: 8% Oryzemate granules, 20 g/4 liters of soil, about 60 days after planting, selected gene
Description: In Example 1, at the outset, a sugarcane variety Q165 was subjected to drug treatment with probenazole (8% Oryzemate granules, Meiji Seika Pharma Co., Ltd., 20 g/4 liters of soil) approximately 60 days after it had been planted. The leaves that had expanded from the top were sampled before and after the treatment, and total RNA was extracted using the RNeasy Plant Mini Kit (QIAGEN).
Subsequently, the obtained total RNA was subjected to RNAseq expression analysis (Illumina HiSeq Sequencing, both-ends analysis), so as to obtain read data set. With the use of the assembler (Velvet version 1.2.08), the read data were reassembled into contig sequence information. The contig sequence information resulting from such reassembly was compared with each RNA sequence, and mapping data were obtained using a mapping program (Bowtie version 1.0.0). The resulting data were designated as the original data for RNAseq analysis.
On the basis of the EST sequence, two types of gene expression regulatory DNAs located in the 5′ upstream region of the selected gene were obtained by the Straight Walk method developed by BEX Co., Ltd. Such gene expression regulatory DNAs are drug-inducible promoters whose transcription activity is activated in the presence of a drug, such as probenazole. […]

[1] = system: drug-inducible promoters, tp1 and tp2; assay: Real-time PCR of RNA levels in recombinants carrying tp1 or tp2 expression vectors, with and without probenazole treatment; assay type: in vivo, sugarcane variety Q165; details: Recombinants 1 to 8; Oryzemate granules (8% probenazole), 20 g/4 liters of soil; leaves sampled 0, 7 and 14 days after treatment; FIG. 7
Method: In Example 2, transcription promoting activity of the two types of drug-inducible promoters, tp1 and tp2, isolated in Example 1 was examined in the presence and in the absence of probenazole.
With the use of the tp1-carrying expression vector and the tp2-carrying expression vector constructed in the manner described above, Recombinants 1 to 8 were prepared. Recombinants 1 to 7 were prepared with the use of the tp1-carrying expression vector, and Recombinant 8 was prepared with the use of the tp2-carrying expression vector.
Recombinants 1 to 8 prepared in the manner described above were treated with Oryzemate granules (8% probenazole, Meiji Seika Pharma Co., Ltd., 20 g/4 liters of soil), and leaves were sampled therefrom 0 days after drug treatment (i.e., immediately before the treatment), 7 days after drug treatment, and 14 days after drug treatment. The RNA levels of the recombinants were quantified using the AB17500 real-time PCR apparatus (Applied BioSystems) in accordance with the SYBR Green method. A comparative example shown in FIG. 7 concerns a recombinant prepared with the use of ecc0002-Hd3a-pIG121-Hm. The control example shown in FIG. 7 concerns the Q165 wild-type sugarcane variety.

With `C=CCOC1=NS(=O)(=O)c2ccccc21` [probenazole] the “increase in expression levels of EST sequence, drug treatment group versus non-treatment group” value (sugarcane variety Q165) was no less than 100 fold and the “degree of gene expression induction” value [1] was no less than 3 times.

Source: US10968457B2, “Drug-inducible promoter and method of inducting gene expression using the same” (TOYOTA JIDOSHA KABUSHIKI KAISHA, priority 2015, dated 2021)
